Laboratory results as given in publication PMC7997578, “Design, Synthesis, Dynamic Docking, Biochemical Characterization, and in Vivo Pharmacokinetics Studies of Novel Topoisomerase II Poisons with Promising Antiproliferative Activity” (Journal of Medicinal Chemistry, 2020).
Where two headings read alike, the source gives them in different places.

Key:
HeLa cells = experiment: cell viability MTT assay, HeLa; type: cell-based, human; settings: HeLa cervical cancer cells, mean ± SD of two experiments, read-out: HeLa antiproliferative activity IC50
Procedure: The antiproliferative activity of all compounds was evaluated in (i) DU145, an androgen-independent prostate cancer cell line; (ii) HeLa, a cervical cancer cell line; and (iii) A549, a lung adenocarcinoma cell line (Table 1). […] Undoubtedly, this preliminary cytotoxicity data will need further characterization, also in relation to the in vitro activity of these compounds.
Human cancer cell lines A549 (lung adenocarcinoma, ATCC CCL-185), DU-145 (androgen-independent prostate cancer, ATCC HTB-81), and HeLa (cervical carcinoma, ATCC CCL-2) were obtained from ATCC. Cells were routinely grown in minimal essential medium containing Eagle’s salts and L-glutamine supplemented with 10% heat-inactivated FBS in a humidified atmosphere of 5% CO2 at 37 °C. To assess the antiproliferative activity of the compounds, cells were seeded at a density of 2500 cells/well (HeLa) or 5000 cells/well (A549, DU-145) in 96-well plates, and cell viability was measured using the MTT assay as described previously.[39] Values are reported as the mean ± SD of two independent experiments.

[1] = aqueous kinetic solubility; type: physicochemical; settings: PBS, pH 7.4, PBS pH 7.4, target 250 µM, 2.5% DMSO, 25°C
Procedure: 1. In vitro m etabolic stabili ty
In vitro microsomial stability. 10mM DMSO stock solution of test compound was pre-incubated at 37 °C for 15min with mouse liver microsomes added 0.1M Tris-HCl buffer (pH 7.4). The final concentration was 4.6µM. After pre -incubation, the co-factors (NADPH, G6P, G6PDH and MgCl2 pre-dissolved in 0.1M Tris-HCl) were added to the incubation mixture and the incubation was continued at 37 °C for 1h. At each time point (0, 5, 15, 30, 60min), 30µL of incubation mixture was diluted with 200µL cold CH 3CN spiked with 200n M of internal standard, followed by centrifugation at 3500g for 15min. The supernatant was further diluted with H2O (1:1) for analysis. The concentration of test compound was quantified by LC/MS-MS on a Waters ACQUITY UPLC/M S TQD system consisting of a TQD (Triple Quadrupole Detector) Mass Spectrometer equipped with an Electrospray Ionization interface. The analyses were run on an ACQUITY UPLC BEH C18 (50x2.1mmID, particle size 1.7µm) with a VanGuard BEH C18 pre -column (5x2.1mmID, particle size 1.7µm) at 40°C, using 0.1% HCOOH in H 2O (A) and 0.1% HCOOH in CH 3CN (B) as mobile phase. Electrospray ionization (ESI) was app lied in positive mode . The percentage of test compound remaining at each time point relative to t=0 was calculated. The half -lives (t½) were determined by an one-phase decay equation using a non -linear regression of compound concentration versus time.
In vitro Plasma Stability. 10mM DMSO stock solution of test compound was diluted 50 -fold with DMSO-H2O (1:1) and incubated at 37 °C for 2 h with mouse plasma added 5% DMSO (pre-heated at 37 °C for 10 min). The final concentration was 2µM. At each time point (0, 5, 15, 30, 60, 120min), 50 µL of incubation mixture was diluted with 200µL cold CH3CN spiked with 200nM of internal standard, followed by centrifugation at 3500g for 20min. The supernatant was further diluted with H2O (1:1) for analysis. The concentration of test compound was quantified by LC/MS-MS on a Waters ACQUITY UPLC/MS TQD system consisting of a TQD (Triple Quadrupole Detector) Mass Spectrometer equipped with an Electrospray Ionization interface. The analyses were run on an ACQUITY UPLC BEH C18 (50x2.1mmID, particle size 1.7µm) with a VanGuard BEH C18 pre - column (5x2.1mmID, particle size 1.7µm) at 40°C, using 0.1% HCOOH in H2O (A) and 0.1% HCOOH in CH3CN (B) as mobile phase. Electrospray ionization (ESI) was applied in positive mode.
The response factors, calculated on the basis of the internal standard peak area, were plotted over time. When possible, response vs. time profiles were fitted with Prism (GraphPad Software, Inc., USA) to estimate compounds half-life in plasma.
2. Aqueous ki netic solu bili ty
The aqueous kinetic solubility was determined from a 10mM DMSO stock solution of test compound in Phosphate Buffered Saline (PBS) at pH 7.4. The study was performed by incubation of an aliquot of 10mM DMSO stock solution in PBS (pH 7.4) at a target concentration of 250µM resulting in a final concentration of 2.5% DMSO. The incubation was carried out under shaking at 25°C for 24h followed by centrifugation at 21.100g for 30min. The supernatant was analyzed by UPLC/MS for the quantification of dissolved compound by UV at a specific wavelength (215nm).
The analyses were performed on a Waters ACQUITY UPLC/MS SQD system consisting of a SQD (Single Quadrupole Detector) Mass Spectrometer equipped with Electrospray Ionization interface.
The analyses were run on an ACQUITY UPLC BEH C18 column (50x2.1mmID, particle size 1.7µm) with a VanGuard BEH C18 pre-column (5x2.1mmID, particle size 1.7µm), using 10mM NH4OAc in H2O at pH 5 adjusted with AcOH (A) and 10mM NH4OAc in MeCN-H2O (95:5) at pH 5 (B) as […]

SMILES: O=C(Nc1cccc(OC(F)(F)F)c1)c1c(O)n(-c2ccccc2)c(=S)n(-c2ccccc2)c1=O [3f, 6-Hydroxy-4-oxo-1,3-diphenyl-2-thioxo-N-(3-(trifluoromethoxy)phenyl)-1,2,3,4-tetrahydropyrimidine-5-carboxamide]
- IC50 (HeLa cells): 3.8 ± 0.3 µM
- IC50 (HeLa cells; Homo sapiens, HeLa): < 5 µM
- solubility kinetic at 24 h [1]: > 200 µM
